In publication doi:10.1101/2025.07.02.662801v1 (biorxiv, 2025):
Read-outs that look alike come from different tables or passages of the source.

Assays:
Format in all cases: biochemical
[1] = molecular target: T1, PTPN2 (TC-PTP); GST-TC-PTP catalytic domain (Homo sapiens, UniProt P17706); test: DiFMUP fluorescence phosphatase assay
T1 sequence (P17706 1-314 limits assumed): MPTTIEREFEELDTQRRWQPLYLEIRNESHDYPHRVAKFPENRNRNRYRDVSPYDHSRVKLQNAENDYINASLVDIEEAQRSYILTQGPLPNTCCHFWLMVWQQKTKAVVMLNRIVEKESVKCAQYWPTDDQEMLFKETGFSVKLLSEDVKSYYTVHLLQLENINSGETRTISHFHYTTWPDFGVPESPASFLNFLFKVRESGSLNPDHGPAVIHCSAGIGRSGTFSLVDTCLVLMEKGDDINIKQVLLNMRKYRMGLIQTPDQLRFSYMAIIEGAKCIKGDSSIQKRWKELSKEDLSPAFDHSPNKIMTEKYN

[2] = molecular target: T2, PTPN1 (PTP1B); GST-PTP1B catalytic domain (Homo sapiens, UniProt P18031); test: DiFMUP fluorescence phosphatase assay
T2 sequence (P18031 1-321 limits assumed): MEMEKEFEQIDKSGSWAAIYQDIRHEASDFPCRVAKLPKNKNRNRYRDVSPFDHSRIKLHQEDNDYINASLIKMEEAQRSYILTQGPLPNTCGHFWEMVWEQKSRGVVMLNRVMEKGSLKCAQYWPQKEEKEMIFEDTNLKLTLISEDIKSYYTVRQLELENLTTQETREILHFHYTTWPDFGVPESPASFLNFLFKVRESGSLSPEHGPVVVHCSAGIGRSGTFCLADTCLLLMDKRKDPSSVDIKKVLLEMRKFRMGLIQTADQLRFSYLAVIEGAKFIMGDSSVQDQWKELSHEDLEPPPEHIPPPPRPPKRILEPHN

[3] = molecular target: T3, PTPN9 (MEG2) (Homo sapiens, UniProt P43378); test: in vitro phosphatase activity curve
T3 sequence (P43378 1-593): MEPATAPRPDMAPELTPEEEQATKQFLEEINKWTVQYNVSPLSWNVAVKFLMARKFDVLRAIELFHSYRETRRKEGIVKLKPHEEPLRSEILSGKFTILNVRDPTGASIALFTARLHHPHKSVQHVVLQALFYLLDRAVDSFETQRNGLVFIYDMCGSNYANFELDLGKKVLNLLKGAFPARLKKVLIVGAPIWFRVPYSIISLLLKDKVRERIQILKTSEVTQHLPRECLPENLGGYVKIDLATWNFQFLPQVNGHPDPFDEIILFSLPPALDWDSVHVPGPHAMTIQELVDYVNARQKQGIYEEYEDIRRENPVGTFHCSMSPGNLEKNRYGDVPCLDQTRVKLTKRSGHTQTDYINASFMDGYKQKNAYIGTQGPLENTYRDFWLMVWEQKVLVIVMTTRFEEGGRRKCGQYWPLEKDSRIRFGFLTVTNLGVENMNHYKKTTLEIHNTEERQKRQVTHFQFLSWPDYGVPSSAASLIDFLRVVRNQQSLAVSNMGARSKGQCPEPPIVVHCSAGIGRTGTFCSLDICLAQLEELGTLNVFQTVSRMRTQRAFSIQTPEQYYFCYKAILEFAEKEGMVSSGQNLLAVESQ

| IC50 [2] [nM] | IC50 [3] [nM] | IC50 [1] [nM] | Structure (SMILES) | IC50 ([1]; 50 mM HEPES pH 7.0, 3 mM DTT, 1 mg/mL BSA, 25 °C, DiFMUP at Km) [nM] |
| --- | --- | --- | --- | --- |
|  |  |  | N#Cc1ccc2cc(Br)c(C(F)(F)P(=O)(O)O)cc2c1 [L598] | 489 |
| 188 | 7200 | 188 | N#CCc1ccc2cc(Br)c(C(F)(F)P(=O)(O)O)cc2c1 [KQ791] |  |
